From US8802597B2, “Herbicidal pyrimidines” (E I du Pont de Nemours and Company, priority 2003, dated 2014)

Tests used:
Assay in all cases: Test C pre/postemergence
Assay type in all cases: in vivo
[1] = test system: morningglory (Ipomoea coccinea); settings: for Morningglory plant response rating: scale 0 to 100 (0 no effect, 100 complete control)
How it was run: (§1)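 Injury scored visually 12–14 days after application on 0–100 scale (100 = complete control), relative to controls. Compounds, formulated with surfactant in non-phytotoxic solvent, applied to soil at planting (pre) or to 1- to 4-leaf plants 2–18 cm tall (post) in greenhouse.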

[2] = test system: common ragweed (Ambrosia elatior); settings: for Ragweed plant response rating: scale 0 to 100 (0 no effect, 100 complete control)
How it was run: as §1

[3] = test system: common (oilseed) sunflower (Helianthus annuus); settings: Preemergence
How it was run: as §1

[4] = test system: yellow nutsedge (Cyperus esculentus); settings: for Nutsedge, Yellow plant response rating: scale 0 to 100 (0 no effect, 100 complete control)
How it was run: as §1

[5] = test system: velvetleaf (Abutilon theophrasti); settings: for Velvetleaf plant response rating: scale 0 to 100 (0 no effect, 100 complete control)
How it was run: as §1

[6] = test system: pigweed (Amaranthus retroflexus); settings: for Pigweed plant response rating: scale 0 to 100 (0 no effect, 100 complete control)
How it was run: as §1

[7] = test system: kochia (Kochia scoparia); settings: for Kochia plant response rating: scale 0 to 100 (0 no effect, 100 complete control)
How it was run: as §1

[8] = test system: woolly cupgrass (Eriochloa villosa); settings: for Cupgrass, Woolly plant response rating: scale 0 to 100 (0 no effect, 100 complete control)
How it was run: as §1

[9] = test system: crabgrass (Digitaria sanguinalis); settings: for Crabgrass plant response rating: scale 0 to 100 (0 no effect, 100 complete control)
How it was run: as §1

[10] = test system: eastern black nightshade (Solanum ptycanthum); settings: Preemergence
How it was run: as §1

[11] = test system: cocklebur (Xanthium strumarium); settings: for Cocklebur plant response rating: scale 0 to 100 (0 no effect, 100 complete control)
How it was run: as §1

[12] = test system: giant foxtail (Setaria faberii); settings: for Foxtail, Giant plant response rating: scale 0 to 100 (0 no effect, 100 complete control)
How it was run: as §1

[13] = Postemergence, 250 g ai/ha, scale 0 to 100
[14] = Preemergence, 31 g ai/ha, scale 0 to 100, 0 no effect, 100 complete control
[15] = Preemergence, 62 g ai/ha, scale 0 to 100, 0 no effect, 100 complete control
[16] = Preemergence, 125 g ai/ha, scale 0 to 100
[17] = Preemergence, 250 g ai/ha, scale 0 to 100
[18] = 31 g ai/ha, scale 0 to 100, 0 no effect, 100 complete control
[19] = 62 g ai/ha, scale 0 to 100, 0 no effect, 100 complete control

CCCCOC(=O)c1nc(C2CC2)nc(N)c1Br [Compound 16]
Plant response rating (scale of 0 to 100), Morningglory ([1]; Postemergence, 31 g ai/ha): 85 | Morningglory plant response rating ([1]; Postemergence, 62 g ai/ha): 95 | Morningglory plant response rating ([1]; Postemergence, 125 g ai/ha): 100 | Plant response rating, Morningglory [1, 13]: 100 | Plant response rating, Morningglory [1, 14]: 65 | Plant response rating, Morningglory [1, 15]: 95 | Plant response rating, Morningglory [1, 16]: 100 | Plant response rating, Morningglory [1, 17]: 100 | Plant response rating (scale of 0 to 100), Ragweed ([2]; Postemergence, 31 g ai/ha): 60 | Ragweed plant response rating ([2]; Postemergence, 62 g ai/ha): 85 | Ragweed plant response rating ([2]; Postemergence, 125 g ai/ha): 95 | Plant response rating, Ragweed [2, 13]: 95 | Plant response rating, Ragweed [2, 14]: 45 | Plant response rating, Ragweed [2, 15]: 90 | Plant response rating, Ragweed [2, 16]: 95 | Plant response rating, Ragweed [2, 17]: 100 | Plant response rating, Sunflower [3, 18]: 20 | Plant response rating, Sunflower [3, 19]: 85 | Plant response rating, Sunflower ([3]; 125 g ai/ha, scale 0 to 100): 100 | Plant response rating, Sunflower ([3]; 250 g ai/ha, scale 0 to 100): 100 | Plant response rating (scale of 0 to 100), Nutsedge, Yellow ([4]; Postemergence, 31 g ai/ha): 0 | Nutsedge, Yellow plant response rating ([4]; Postemergence, 62 g ai/ha): 0 | Nutsedge, Yellow plant response rating ([4]; Postemergence, 125 g ai/ha): 0 | Plant response rating, Nutsedge, Yellow [4, 13]: 0 | Plant response rating, Nutsedge, Yellow [4, 14]: 0 | Plant response rating, Nutsedge, Yellow [4, 15]: 0 | Plant response rating, Nutsedge, Yellow [4, 16]: 0 | Plant response rating, Nutsedge, Yellow [4, 17]: 0 | Plant response rating (scale of 0 to 100), Velvetleaf ([5]; Postemergence, 31 g ai/ha): 55 | Velvetleaf plant response rating ([5]; Postemergence, 62 g ai/ha): 60 | Velvetleaf plant response rating ([5]; Postemergence, 125 g ai/ha): 65 | Plant response rating, Velvetleaf [5, 13]: 90 | Plant response rating, Velvetleaf [5, 14]: 25 | Plant response rating, Velvetleaf [5, 15]: 90 | Plant response rating, Velvetleaf [5, 16]: 95 | Plant response rating, Velvetleaf [5, 17]: 100 | Plant response rating (scale of 0 to 100), Pigweed ([6]; Postemergence, 31 g ai/ha): 85 | Pigweed plant response rating ([6]; Postemergence, 62 g ai/ha): 90 | Pigweed plant response rating ([6]; Postemergence, 125 g ai/ha): 95 | Plant response rating, Pigweed [6, 13]: 95 | Plant response rating, Pigweed [6, 14]: 85 | Plant response rating, Pigweed [6, 15]: 95 | Plant response rating, Pigweed [6, 16]: 100 | Plant response rating, Pigweed [6, 17]: 100 | Plant response rating (scale of 0 to 100), Kochia ([7]; Postemergence, 31 g ai/ha): 95 | Kochia plant response rating ([7]; Postemergence, 62 g ai/ha): 100 | Kochia plant response rating ([7]; Postemergence, 125 g ai/ha): 100 | Plant response rating, Kochia [7, 13]: 100 | Plant response rating, Kochia [7, 14]: 90 | Plant response rating, Kochia [7, 15]: 95 | Plant response rating, Kochia [7, 16]: 100 | Plant response rating, Kochia [7, 17]: 100 | Plant response rating (scale of 0 to 100), Cupgrass, Woolly ([8]; Postemergence, 31 g ai/ha): 0 | Cupgrass, Woolly plant response rating ([8]; Postemergence, 62 g ai/ha): 0 | Cupgrass, Woolly plant response rating ([8]; Postemergence, 125 g ai/ha): 0 | Plant response rating, Cupgrass, Woolly [8, 13]: 65 | Plant response rating, Cupgrass, Woolly [8, 14]: 0 | Plant response rating, Cupgrass, Woolly [8, 15]: 0 | Plant response rating, Cupgrass, Woolly [8, 16]: 15 | Plant response rating, Cupgrass, Woolly [8, 17]: 65 | Plant response rating (scale of 0 to 100), Crabgrass ([9]; Postemergence, 31 g ai/ha): 0 | Crabgrass plant response rating ([9]; Postemergence, 62 g ai/ha): 15 | Crabgrass plant response rating ([9]; Postemergence, 125 g ai/ha): 45 | Plant response rating, Crabgrass [9, 13]: 75 | Plant response rating, Crabgrass [9, 14]: 0 | Plant response rating, Crabgrass [9, 15]: 0 | Plant response rating, Crabgrass [9, 16]: 65 | Plant response rating, Crabgrass [9, 17]: 95 | Plant response rating, Nightshade [10, 18]: 55 | Plant response rating, Nightshade [10, 19]: 90 | Plant response rating, Nightshade ([10]; 125 g ai/ha, scale 0 to 100): 95 | Plant response rating, Nightshade ([10]; 250 g ai/ha, scale 0 to 100): 100 | Plant response rating (scale of 0 to 100), Cocklebur ([11]; Postemergence, 31 g ai/ha): 75 | Cocklebur plant response rating ([11]; Postemergence, 62 g ai/ha): 95 | Cocklebur plant response rating ([11]; Postemergence, 125 g ai/ha): 100 | Plant response rating, Cocklebur [11, 13]: 100 | Plant response rating, Cocklebur [11, 14]: 45 | Plant response rating, Cocklebur [11, 15]: 95 | Plant response rating, Cocklebur [11, 16]: 95 | Plant response rating, Cocklebur [11, 17]: 100 | Plant response rating (scale of 0 to 100), Foxtail, Giant ([12]; Postemergence, 31 g ai/ha): 0 | Foxtail, Giant plant response rating ([12]; Postemergence, 62 g ai/ha): 20 | Foxtail, Giant plant response rating ([12]; Postemergence, 125 g ai/ha): 55 | Plant response rating, Foxtail, Giant [12, 13]: 65 | Plant response rating, Foxtail, Giant [12, 14]: 0 | Plant response rating, Foxtail, Giant [12, 15]: 0 | Plant response rating, Foxtail, Giant [12, 16]: 0 | Plant response rating, Foxtail, Giant [12, 17]: 75
